This is an account of results in patent US20150191469A1, “COMPOUNDS AND METHODS FOR TREATING HIV” (priority 2012, published 2015).

In this assay the test system is HIV. The assay can be described thus: MT4 assay: antiviral HIV activity (cell protection, cell titer glo readout at 96 hours). It counts as cell-based. To be noted: Human immunodeficiency virus 1, MT4, 96 h, MT4 cells, cell titer glo readout at 96 hours, 10 point dose response; read-out: HIV MT4 Assay IC50. The procedure:
Antiviral HIV activity and cytotoxicity values for compounds of the invention from Table 1 were measured in parallel in the HTLV-1 transformed cell line MT-4 based on the method previously described (Hazen et al., 2007, In vitro antiviral activity of the novel, tyrosyl-based human immunodeficiency virus (HIV) type 1 protease inhibitor brecanavir (GW640385) in combination with other antiretrovirals and against a panel of protease inhibitor-resistant HIV (Hazen et al., “In vitro antiviral activity of the novel, tyrosyl-based human immunodeficiency virus (HIV) type 1 protease inhibitor brecanavir (GW640385) in combination with other antiretrovirals and against a panel of protease inhibitor-resistant HIV”, Antimicrob. Agents Chemother. 2007, 51: 3147-3154; and Pauwels et al., “Sensitive and rapid assay on MT-4 cells for the detection of antiviral compounds against the AIDS virus”, J. of Virological Methods 1987, 16: 171-185).
Luciferase activity was measured 96 hours later by adding a cell titer glo (Promega, Madison, Wis.). Percent inhibition of cell protection data was plotted relative to no compound control. Under the same condition, cytotoxicity of the compounds was determined using cell titer Glo™ (Promega, Madison, Wis.). IC50s were determined from a 10 point dose response curve using 3-4-fold serial dilution for each compound, which spans a concentration range >1000 fold.
These values are plotted against the molar compound concentrations using the standard four parameter logistic equation:
y=((Vmax*x̂n)/(K̂n+x̂n))+Y2
Y2=minimum y n=slope factor
Vmax=maximum y x=compound concentration [M]
On the technique in general: In ATP-based viability assays light output follows the ATP content of the culture.
As to `Cc1nc2c(cc(-c3ccnc(-c4ccc5c(c4)NCCO5)c3)n2C)c(-c2cc(F)c3c(c2C)CCCO3)c1[C@H](OC(C)(C)C)C(=O)O` (atropisomer, axis not shown) [Example 50], the IC50 stood at 8.7 nM.

Take `COc1ncc(-c2cc(-c3cc4c(-c5cc(F)c6c(c5C)CCCO6)c([C@H](OC(C)(C)C)C(=O)O)c(C)nc4n3C)ccn2)cn1` (atropisomer, axis not shown) [Example 52]: the IC50 is 13.9 nM.

Consider `Cc1nc2c(cc(-c3ccnc(-c4ccc5cn(C)nc5c4)c3)n2C)c(-c2cc(F)c3c(c2C)CCCO3)c1[C@H](OC(C)(C)C)C(=O)O` (atropisomer, axis not shown) [Example 53], for which the IC50 was determined as 2.1 nM.

As for `Cc1nc2c(cc(-c3ccnc(-c4ccc5c(cnn5C5CC5)c4)c3)n2C)c(-c2cc(F)c3c(c2C)CCCO3)c1[C@H](OC(C)(C)C)C(=O)O` (atropisomer, axis not shown) [Example 54], the 50% inhibitory concentration (IC50) amounted to 4.6 nM.

`Cc1nc2c(cc(-c3ccnc(-c4ccc5[nH]c(=O)[nH]c5c4)c3)n2C)c(-c2cc(F)c3c(c2C)CCCO3)c1[C@H](OC(C)(C)C)C(=O)O` (atropisomer, axis not shown) [Example 55]: the IC50 is 410 nM.

For `Cc1nc2c(cc(-c3ccnc(-c4ccc5c(c4)NCC5)c3)n2C)c(-c2cc(F)c3c(c2C)CCCO3)c1[C@H](OC(C)(C)C)C(=O)O` (atropisomer, axis not shown) [Example 56], the IC50 amounted to 15 nM.

As for `Cc1nc2c(cc(-c3ccnc(-c4ccc5c(cnn5C)c4)c3)n2C)c(-c2cc(F)c3c(c2C)CCCO3)c1[C@H](OC(C)(C)C)C(=O)O` (atropisomer, axis not shown) [Example 57], the IC50 was 1.4 nM.

Regarding `Cc1nc2c(cc(-c3ccnc(-c4cccc5c4cnn5C)c3)n2C)c(-c2cc(F)c3c(c2C)CCCO3)c1[C@H](OC(C)(C)C)C(=O)O` (atropisomer, axis not shown) [Example 58], the IC50 is 5.4 nM.

As for `Cc1nc2c(cc(-c3ccnc(-c4cccc5cnn(C)c45)c3)n2C)c(-c2cc(F)c3c(c2C)CCCO3)c1[C@H](OC(C)(C)C)C(=O)O` (atropisomer, axis not shown) [Example 59], the IC50 is 16 nM.

As for `Cc1nc2c(cc(-c3ccnc(-c4ccc5c(c4)nnn5C)c3)n2C)c(-c2cc(F)c3c(c2C)CCCO3)c1[C@H](OC(C)(C)C)C(=O)O` (atropisomer, axis not shown) [Example 60], the IC50 is 3.7 nM.

Turning to `Cc1nc2c(cc(-c3ccnc(-c4cnc5[nH]ccc5c4)c3)n2C)c(-c2cc(F)c3c(c2C)CCCO3)c1[C@H](OC(C)(C)C)C(=O)O` (atropisomer, axis not shown) [Example 62], the half-maximal inhibitory concentration (IC50) amounted to 2.9 nM.

For the compound `Cc1nc2c(cc(-c3ccnc(-n4ccnc4C)c3)n2C)c(-c2cc(F)c3c(c2C)CCCO3)c1[C@H](OC(C)(C)C)C(=O)O` (atropisomer, axis not shown) [Example 63], the IC50 was found to be 15.4 nM.

Take `Cc1nc2c(cc(-c3ccnc(-c4cnc5c(cnn5C)c4)c3)n2C)c(-c2cc(F)c3c(c2C)CCCO3)c1[C@H](OC(C)(C)C)C(=O)O` (atropisomer, axis not shown) [Example 66]: the IC50 was determined as 8.6 nM.

With `Cc1nc2c(cc(-c3ccnc(-c4ccn5cc(C(F)(F)F)nc5c4)c3)n2C)c(-c2cc(F)c3c(c2C)CCCO3)c1[C@H](OC(C)(C)C)C(=O)O` (atropisomer, axis not shown) [Example 67], the IC50 came to 45 nM.

With `Cc1nc2c(cc(-c3ccnc(-c4ccc5[nH]ncc5c4C)c3)n2C)c(-c2cc(F)c3c(c2C)CCCO3)c1[C@H](OC(C)(C)C)C(=O)O` (atropisomer, axis not shown) [Example 68], the IC50 was 6.4 nM.

As to `Cc1nc2c(cc(-c3ccnc(-c4ccc(N(C)C)nc4)c3)n2C)c(-c2cc(F)c3c(c2C)CCCO3)c1[C@H](OC(C)(C)C)C(=O)O` (atropisomer, axis not shown) [Example 69], the IC50 was 4.8 nM.

Take `Cc1nc2c(cc(-c3ccnc(-c4cnc(N5CCN(C)CC5)nc4)c3)n2C)c(-c2cc(F)c3c(c2C)CCCO3)c1[C@H](OC(C)(C)C)C(=O)O` (atropisomer, axis not shown) [Example 70]: the IC50 turned out to be 3.1 nM.

`Cc1nc2c(cc(-c3ccnc(-c4cnc5c(c4)CCCN5)c3)n2C)c(-c2cc(F)c3c(c2C)CCCO3)c1[C@H](OC(C)(C)C)C(=O)O` (atropisomer, axis not shown) [Example 72]: the IC50 stood at 4.6 nM.

Regarding `Cc1nc2c(cc(-c3ccnc(N4CCn5c(C)nnc5C4)c3)n2C)c(-c2cc(F)c3c(c2C)CCCO3)c1[C@H](OC(C)(C)C)C(=O)O` (atropisomer, axis not shown) [Example 79], the IC50 was 645 nM.

Take `Cc1nc2c(cc(-c3ccnc(N4CCC(C)CC4)c3)n2C)c(-c2cc(F)c3c(c2C)CCCO3)c1[C@H](OC(C)(C)C)C(=O)O` (atropisomer, axis not shown) [Example 80]: the IC50 is 21.3 nM.

Consider `Cc1nc2c(cc(-c3ccnc(NC4COC4)c3)n2C)c(-c2cc(F)c3c(c2C)CCCO3)c1[C@H](OC(C)(C)C)C(=O)O` (atropisomer, axis not shown) [Example 81], for which the IC50 came to 2280 nM.

As to `Cc1nc2c(cc(-c3ccnc(N4CCN(C(=O)c5ccccc5)CC4)c3)n2C)c(-c2cc(F)c3c(c2C)CCCO3)c1[C@H](OC(C)(C)C)C(=O)O` (atropisomer, axis not shown) [Example 82], the IC50 is 47.7 nM.

With `Cc1nc2c(cc(-c3ccnc(N4CCN(c5ccccc5)CC4)c3)n2C)c(-c2cc(F)c3c(c2C)CCCO3)c1[C@H](OC(C)(C)C)C(=O)O` (atropisomer, axis not shown) [Example 83], the IC50 was found to be 52.5 nM.

For `Cc1nc2c(cc(-c3ccnc(N4CCN(c5nccs5)CC4)c3)n2C)c(-c2cc(F)c3c(c2C)CCCO3)c1[C@H](OC(C)(C)C)C(=O)O` (atropisomer, axis not shown) [Example 84], the IC50 is 14.7 nM.

For the compound `Cc1nc2c(cc(-c3ccnc(N4CCCN(C5COC5)CC4)c3)n2C)c(-c2cc(F)c3c(c2C)CCCO3)c1[C@H](OC(C)(C)C)C(=O)O` (atropisomer, axis not shown) [Example 85], the IC50 was 12.7 nM.

For `COC1CCN(c2cc(-c3cc4c(-c5cc(F)c6c(c5C)CCCO6)c([C@H](OC(C)(C)C)C(=O)O)c(C)nc4n3C)ccn2)CC1` (atropisomer, axis not shown) [Example 86], the IC50 stood at 13.2 nM.

In the case of `Cc1nc2c(cc(-c3ccnc(N4CCC(N(C)C)CC4)c3)n2C)c(-c2cc(F)c3c(c2C)CCCO3)c1[C@H](OC(C)(C)C)C(=O)O` (atropisomer, axis not shown) [Example 87], the IC50 was determined as 42.8 nM.

For `Cc1nc2c(cc(-c3ccnc(N4CCN(c5ccncc5)CC4)c3)n2C)c(-c2cc(F)c3c(c2C)CCCO3)c1[C@H](OC(C)(C)C)C(=O)O` (atropisomer, axis not shown) [Example 88], the IC50 was 13.4 nM.

`CC(=O)N1CCN(c2cc(-c3cc4c(-c5cc(F)c6c(c5C)CCCO6)c([C@H](OC(C)(C)C)C(=O)O)c(C)nc4n3C)ccn2)CC1` (atropisomer, axis not shown) [Example 89]: the IC50 was determined as 25 nM.

Turning to `Cc1nc2c(cc(-c3ccnc(N4CCN(c5ccccn5)CC4)c3)n2C)c(-c2cc(F)c3c(c2C)CCCO3)c1[C@H](OC(C)(C)C)C(=O)O` (atropisomer, axis not shown) [Example 90], the IC50 was 13.3 nM.

In general, IC50 refers to the concentration that gives 50% inhibition.
